Source: patent US20060292213A1, “Enoximone formulations and their use in the treatment of PDE-III mediated diseases” (Myogen, Inc., priority 2004, published 2006)
Values after ≈ are worked out from the molar mass of the structure shown. Read-outs that look alike come from different tables or passages of the source. Blank lines part the entries; values can stand above or below the compound they belong to.

Assays:
[1] = system: patients with primary thrombocythemia and thrombocytosis; details: used to lower platelet counts; cited from earlier work
[2] = system: men who suffer from ED; details: ED of psychogenic or organic etiology; cited from earlier work
[3] = system: PDE-III; details: cited from earlier work
[4] = system: spontaneously hypertensive rats; assay: Anti-hypertensive activity, cannulated conscious female spontaneously hypertensive rats (Example 1); type: in vivo, rat; details: 45 and 60 minute time points, 100 mg/kg and 30 mg/kg groups; statistically significant
Experimental: Female spontaneously hypertensive rats were anesthetized and cannulated. The end of the cannula was exteriorized through the skin for measurement of arterial blood pressure. Approximately 30 minutes after the rats regained consciousness, the experiment began. Mean blood pressure and heart rate were recorded 15 minutes prior to drug administration, at the time of administration, and 15, 30, 45 and 60 minutes following administration. Drug was administered at a variety of dosages. A statistically significant decrease in blood pressure of ˜42% was measured at the 45 and 60 minute time points for the 100 mg/kg and 30 mg/kg groups.

[5] = system: spontaneously hypertensive rats; assay: Anti-hypertensive activity, spontaneously hypertensive rats, single dose (Example 2); type: in vivo, rat; details: for blood pressure (mean arterial): vehicle 169+/−7.9
Experimental: Spontaneously hypertensive rats were divided into groups and treated with vehicle or a single dose of 10, 30 or 100 mg/kg of enoximone. Mean arterial blood pressure and heart rate were recorded before and at 15, 30, 45 and 60 minutes after treatment. Blood pressure decreased in all drug treatment groups.

[6] = system: anesthetized dogs; assay: Cardiorenal hemodynamics, i.v. infusion in anesthetized dogs (Example 3); type: in vivo, dog
[7] = system: Mongrel dogs; assay: Coronary blood flow, anesthetized mongrel dogs, electromagnetic flow probe (Example 5); type: in vivo, dog
Experimental: Mongrel dogs were anesthetized and given bolus injections of enoximone and coronary blood flow was measured using a Stratham electromagnetic flow probe, Model SP-7516-606-214, placed around the circumflex branch of the left coronary artery near its origin. The flow probe was connected to a Stratham Model SP2202 electromagnetic flow meter which was connected to a Grass Model 7P1 low level DC preamplifier. All recordings were made on a Grass Model 7B or […] polygraph.

[8] = system: perfused hindlimb; assay: Arteriolar resistance, pump perfused hindlimb preparation (Example 6); type: in vivo, dog
Description: The pump perfused hindlimb preparation permits the in vivo determination of the direct vascular effects of a compound. Dogs were anesthetized and allowed to respire sponatenously. The branchial artery and vein were cannulated and a catheter was passed down the left carotid artery into the left ventricle. […]

[9] = system: subjects displaying chronic stable angina; assay: Double blind placebo controlled cross over trial in chronic stable angina (Example 7); type: in vivo, human; details: single oral dose 75 mg
Experimental: A double blind placebo controlled cross over trial of enoximone was done with 20 subjects displaying chronic stable angina. Enoximone as a single oral dose (75 mg) was compared with placebo.

[10] = system: human platelet aggregation; assay: Human platelet aggregation in platelet rich plasma, aggregometer (Example 8); type: cell-based; details: 5 min, PRP incubated 5 minutes at room temperature
Experimental: Substances which increase platelet cAMP levels are known to inhibit platelet aggregation. Blood was taken from human donors not on aspirin or taking any aspirin-containing substances (or other nonsteroidal anti-inflammatory drugs) for at least two weeks prior to donation. […] PRP was exposed only to plastic laboratory ware. All experiments were completed within 3 hours. PRP was incubated for 5 minutes at room temperature with enoximone prior to the addition of any aggregating agent. Aggregation was monitored by continuous recording of light transmittance in a Chrono-log dual-channel aggregometer (Chrono-log Corp.) in atotal volume of 0.5 ml PRP. Aggregating substances used were ADP (5 μM), collagen […] and arachidonic acid (2 μg/ml) (Chrono-log Corp.). Enoximone ([…]) inhibited platelet aggregation in a concentration dependent manner. […] It was also ruled out that enoximone was inhibiting aggregation by somehow inhibiting the metabolism of arachidonic acid as measured by HPLC and RIA.

[11] = system: normal human volunteers; assay: Renal function and plasma volume in normal human volunteers (Example 4); details: single I.V. dose 2.5 mg/kg, then 200 mg t.i.d. for 5 days

Compound: interferon-α
patients achieving a stable state of remission [1]: approximately 50%

Compound: CCCc1nn(C)c2c(=O)[nH]c(-c3cc(S(=O)(=O)N4CCN(C)CC4)ccc3OCC)nc12 [Sildenafil, 5-[2-ethoxy-5-(4-methylpiperazin-1-ylsulphonyl)phenyl]-1-methyl-3-n-propyl-6,7-dihydro-1H-pyrazolo[4,3-d]pyrimidin-7-one]
men with improved sexual function [2]: about 70% | inhibition of PDE-III [3]: negligible inhibition

IC50 ([10]; ADP (5 μM), read-out: IC50 for ADP induced aggregation): 20.9 µg/mL (≈ 84.2 µM) | IC50 ([10]; arachidonic acid (2 μg/ml), read-out: IC50 for arachidonic acid induced aggregation): 0.24 µg/mL (≈ 0.967 µM) | IC50 ([10]; collagen (1.0 mM), read-out: IC50 for collagen induced aggregation): 36.3 µg/mL (≈ 146 µM) | renal function [11]: no impairment
Compound: CSc1ccc(C(=O)c2[nH]c(=O)[nH]c2C)cc1 [Enoximone, 1,3-Dihydro-4-methyl-5-[4-(methylthio)benzoyl]-2H-imidazol-2-one]
decrease in blood pressure [4]: ~42% | blood pressure (mean arterial) ([5]; 45 minutes, 30 mg/kg, non-significant): 151+/−9 | blood pressure (mean arterial) ([5]; 60 minutes, 30 mg/kg, non-significant): 142+/−8 | blood pressure (mean arterial) ([5]; 60 minutes, 100 mg/kg, significant): 100+/−9.7 | blood pressure, change in words ([5]; all drug treatment groups (10, 30 or 100 mg/kg)): decreased | heart rates ([5]; all groups (10, 30 or 100 mg/kg)): unchanged | blood pressure ([6]; 30 μg/kg/min i.v. infusion): decreasing | cardiac contractile force ([6]; 30 μg/kg/min i.v. infusion): increasing | glomerular filtration ([6]; 100 μg/kg/min i.v. infusion): unchanged | increase in renal blood flow ([6]; 100 μg/kg/min i.v. infusion): 15-20% | renal vascular resistance ([6]; 100 μg/kg/min i.v. infusion): measurable decreases | increase in coronary blood flow ([7]; bolus injection 0.1 mg/kg): 12+/−2% | increase in coronary blood flow ([7]; bolus injection 1 mg/kg): 41+/−6% | decrease in hind limb perfusion pressure ([8]; 0.3 mg/kg): 11+/−2% | decrease in hind limb perfusion pressure ([8]; 3 mg/kg): 25+/−2% | total exercise duration, mean difference versus placebo ([9]; significantly longer than placebo): 22.8 s | time to onset of angina and development of significant ST-segment decrease, versus placebo ([9]; trends in favor of enoximone): similar
